The subject of one series is PDI. Also on record: method as in PMID 22565308, PMID 22988091, PMID 27197150, PMID 24070012, PMID 24624466. Conditions: reported PDI inhibitors, Figure 1b; read-out: PDI IC50 measured by the insulin-aggregation assay; cited from earlier work.
In series [1] the test system is washed human platelets. Put plainly: U46619-induced platelet aggregation. The format is cell-based. Conditions: Platelet; washed human platelets, U46619 (1 μM). The procedure, abridged: (§1)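 Washed platelets from ACD-anticoagulated blood of healthy donors, stirred at 1200 rpm, 37 °C in a turbidimetric aggregometer. Aggregation triggered by U46619 or collagen, scored as maximal rise in light transmission.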

Series [2] relates to washed human platelets. Put plainly: Collagen-induced platelet aggregation. The format is cell-based. Conditions: Platelet; washed human platelets, collagen (5 μg/mL). The procedure, abridged:
as §1

Series [3] can be described thus: Parallel artificial membrane permeability assay (PAMPA). Conditions: 50 μM, 25 ℃, 3 h, verapamil = 100%, ranitidine = 0%. The gist of the method:
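Donor wells held 50 μM compound (DMSO <1% v/v, diluted from 10 mM stocks) in buffer; filter membrane coated with 2% w/v DOPC in n-dodecane. Sandwich incubated 3 h at 25 ℃, then donor and acceptor drug amounts quantified by UV spectra (220–400 nm) against reference standards.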
(PAMPA measures passive passage across an artificial lipid membrane.)

Another series has as its target Human rPDI (Homo sapiens, UniProt P07237). The experiment in a line: Effect of GSH on rPDI inhibition (Di-E-GSSG assay). The format is biochemical. Conditions: 10 μM compound, 1 mM GSH vs 5 μM DTT. Here is the method:
(§2) GSH is the major cellular nonprotein thiol, which exists within cells at millimolar concentrations (1–8 mM) while is present extracellularly at only a few micromolar.[53] The high concentrations of intracellular GSH thus may compete with the binding of PDI to covalent PDI inhibitors.[54] […] In this assay, the noncovalent PDI inhibitor isoquercetin was used as a negative control.
Data are mean ± SEM of three independent experiments.

The nature of series [4]: UPLC-MS analysis of compound metabolites in water with or without GSH. The format is physicochemical. The conditions noted are these: 37 °C, 30 min. The procedure:
as §2
Compounds (400 μM) were incubated in water (250 μL) with or without GSH (4 mM) at 37 °C for 30 min. The compound mixture was diluted with methanol (250 μL) and used for UPLC-MS analysis Metabolite analysis was performed on an ACQUITY UPLC I-Class/SQ Detector 2 (Waters, Milford, USA). The reverse phase BEH C18 column (100 mm × 2.1 mm, 1.7 μm, Waters) and VanGuard BEH C18 guard column (5 mm × 2.1 mm, 1.7 μm, Waters) were used. All data were acquired by Empower 3. The mobile phase for LC separation was Millipore water (A) and acetonitrile (B), and the program was as follows: 0.00 min 90% A → 0.50 min 90% A → 6.50 min 5% A → 8.50 min 5% A → 8.60 min 90% A → 9.00 min 90% A; at a rate of 0.4 mL/min for 9.00 min with 5 μL per injection. The temperature of the column oven was maintained at 40 °C. Mass spectrometer parameters were set as follows: cone voltage, 40.0 V, for positive/negative ion mode; desolvation temperature, 200 °C; cone gas flow(N2), 1 L/h; and desolvation gas flow (N2), 650 L/h.

The subject of a further series is glioma U87. Put plainly: Cell viability, resazurin assay, U87. The conditions noted are these: Homo sapiens, 24 h, read-out: U87 IC50. Background: The colour change of resazurin is a common sign of viable cells or microbes.
Another series has as its system lung cancer A549. The experiment in a line: Cell viability, resazurin assay, A549. The conditions noted are these: Homo sapiens, A549, 24 h, read-out: A549 IC50.
Series [5] concerns multiple myeloma RPMI8226. Put plainly: Cell viability, resazurin assay, RPMI8226.
Protocol: (§3) Cells were maintained in a humidified incubator at 37 °C in 5% CO2, and cell viability was determined with the resazurin assay (Cayman Chemical, USA) after the incubation with compounds for indicated concentrations and times or DMSO as control.[72]
The test system of series [6] is human vascular endothelial EA.hy926 cells. Put plainly: Cell viability, resazurin assay, EA.hy926. Conditions: EA.hy 926, 24 h, read-out: EAhy926 IC50.
Protocol: as §3
The test system of another series is breast cancer MDA-MB-231. Put plainly: Cell viability, resazurin assay, MDA-MB-231. The conditions noted are these: Homo sapiens, MDA-MB-231, 24 h, read-out: MDA-MB-231 IC50.
In series [7] the target is purified human recombinant PDI (rPDI) (Homo sapiens, UniProt P07237). Put plainly: Recombinant PDI reductase activity (Di-E-GSSG assay). Conditions: read-out: rPDI IC50; human recombinant PDI, Di-E-GSSG, 5 μM DTT.
Protocol: (§4) In this assay, a nonfluorescent substrate, dieosin glutathione disulfide (Di-E-GSSG), was reduced into a fluorescent product eosin-glutathione (E-GSH) by platelet surface PDI in the presence of 5 μM dithiothreitol (DTT).
A further series has as its target platelet surface PDI (Homo sapiens, UniProt P07237). Put plainly: Cell surface PDI reductase activity on intact human platelets (Di-E-GSSG assay). Conditions: read-out: Surface PDI IC50; intact human platelets, Di-E-GSSG, 5 μM DTT.

Human rPDI, sequence (P07237 18-508): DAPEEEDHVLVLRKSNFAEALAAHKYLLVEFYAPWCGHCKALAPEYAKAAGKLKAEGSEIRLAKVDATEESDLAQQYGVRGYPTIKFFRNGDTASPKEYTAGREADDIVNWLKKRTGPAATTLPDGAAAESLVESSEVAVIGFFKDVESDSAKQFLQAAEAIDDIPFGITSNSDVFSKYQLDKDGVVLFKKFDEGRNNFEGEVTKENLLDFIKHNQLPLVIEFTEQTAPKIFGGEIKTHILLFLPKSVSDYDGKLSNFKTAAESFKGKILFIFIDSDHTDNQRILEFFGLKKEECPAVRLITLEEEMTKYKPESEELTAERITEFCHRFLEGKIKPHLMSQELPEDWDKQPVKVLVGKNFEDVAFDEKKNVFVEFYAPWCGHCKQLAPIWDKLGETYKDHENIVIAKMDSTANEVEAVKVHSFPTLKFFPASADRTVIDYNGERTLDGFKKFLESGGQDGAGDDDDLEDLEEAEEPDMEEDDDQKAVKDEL
purified human recombinant PDI (rPDI), sequence (P07237 18-508): as above
platelet surface PDI, sequence (P07237 18-508): as above
Protocol for breast cancer MDA-MB-231: as §3
Protocol for glioma U87: as §3
Protocol for lung cancer A549: as §3
Protocol for platelet surface PDI: as §4

By IC50 is commonly meant the concentration that inhibits the measured activity by half. Turning to `N#Cc1cccc(/C=C/C(=O)c2ccc(O)cc2)c1` [BAP-2], in the series with PDI, the IC50 is 930 nM.
In the case of `CC(=O)OC[C@H]1O[C@@H](SC2=C(c3ccc(O)cc3O)C(=O)c3c(O)cccc3C2=O)[C@H](OC(C)=O)[C@@H](OC(C)=O)[C@@H]1OC(C)=O` [Compound 31, 2-(2,4-Dihydroxyphenyl)-3-(2,3,4,6-tetra-O-acetyl-1-thio-β-D-glucopyranose)-8-hydroxynaphthalene-1,4-dione], the IC50 with washed human platelets [1] amounted to 3.54 ± 0.11 µM; in the series on washed human platelets [2], 6.65 ± 1.74 µM; in the series with glioma U87 it was 7.39 ± 0.22 µM; in the series with lung cancer A549 it was 12.6 ± 1.51 µM; in [5] (Homo sapiens, RPMI-8226, 24 h, read-out: RPMI8226 IC50) it was 3.07 ± 0.29 µM; in series [6] it was 6.87 ± 0.21 µM. In addition, the IC50 in the series with breast cancer MDA-MB-231 was found to be 11.3 ± 1.09 µM; in series [7], 670 ± 90 nM; on platelet surface PDI it was 460 ± 70 nM. For the same molecule, in [3], the “Permeability (%)” value turned out to be 28.86%. Further, the “PDI-inhibitory activity in the presence of GSH” value on Human rPDI is reported as “largely reduced by GSH”. Further, the “stability in aqueous conditions (UPLC-MS)” value in [4] (400 μM in water) is “easily hydrolyzed in aqueous condition”. In [4] (400 μM, GSH 4 mM), the “GSH adduct formation after GSH treatment (UPLC-MS)” value is listed as “significant amount of GSH addition product”. Further, the “S.I. (EAhy926/RPMI8226), selectivity index” value in series [5] (24 h IC50 ratio) was determined as 2.2.
On to `CCOC(=O)C1(CCOc2ccccc2)CCN(Cc2ccc(O)c(Cl)c2)CC1` [ML359], for which the IC50 with PDI is 250 nM.

The values are drawn from article PMC10945480 (Journal of Medicinal Chemistry, 2024).
